The values that follow come from patent publication US11028364B2, “Compositions and methods for modulating an immune response” (President and Fellows of Harvard College, priority 2015, dated 2021).

Type in all cases: cell-based, mice
Experiment [1] relates to B cells cultured with TFH and TFR cells (suppressed cultures). Kind of experiment: in vitro TFR suppression assay (B, TFH and TFR cells) with addition of cytokine. The settings on record: for amount of secreted antibody in culture supernatants: compared to activated cultures. As to the method: To determine the mechanisms of how TFH and B cells are altered during direct TFR suppression, an in vitro suppression assay in which TFR cells are cultured with TFH and B cells was utilized. See e.g., Sage et al., J Clin Invest 124, 5191-5204 (2014); Sage et al., Immunity 41, 1026-1039 (2014); Sage et al., Methods Mol Biol 1291, 151-160 (2015). For these assays, FoxP3IRES-GFP mice were immunized with NP-OVA (emulsified in CFA) subcutaneously and isolated draining lymph nodes 7 days later. TFR (sorted as CD4+ICOS+CXCR5+CD19− FoxP3+) cells were added to co-cultures of B (sorted as CD19+) and TFH (sorted as CD4+ICOS+CXCR5+CD19−FoxP3) cells along with anti-CD3 and anti-IgM for 2 to 6 days (FIG. 1A, FIG. 36A, and FIG. 36B). After 6 days of co-culture of B and TFH cells, robust upregulation of the GC B cell marker GL7 was found as well as class switch recombination to IgG1, the predominant class switched isotype in this model (FIG. 1B). In addition, robust quantities of secreted IgG were found in the culture supernatant when B cells were cultured with TFH cells, but not when B cells were cultured alone. […] CD4^+CXCR5^−ICOS^−Foxp3^+ Treg cells were not able to suppress as efficiently as TFR cells did (FIG. 15). […] Therefore, this culture system is a robust model to study TFR suppression of TFH and B cells.
It is possible that B cell function genes and multiple metabolic pathways cooperate to induce class switch recombination and antibody production in B cells. […] Therefore, to determine ways to overcome suppressed B cells therapeutically, it is possible that both B cell genes and metabolism would need to be energized to overcome suppression. […] When IL-21 was added to suppression assays, the attenuation in proliferation of B cells mediated by TFR cells was rescued (FIG. 11A).
Since metabolism is essential to facilitate B cell effector functions and is regulated by TFR cells, the metabolic potential of B cells was assessed in suppressed cultures with the addition of IL-21. […] Similarly, Glut1 expression on TFH cells was rescued when IL-21 was added to suppressed cultures. […] Therefore, addition of IL-21 can rescue the glycolytic function of suppressed B cells. It is possible that IL-21 rescues antibody production primarily through enhancing metabolism. To determine if enhanced glycolysis was required for the IL-21 rescue of antibody production in suppressed cultures, glycolysis was blocked to determine if antibody responses could still be rescued in the absence of enhanced metabolism. […] Therefore, IL-21 renders B cells resistant to TFR mediated suppression primarily by enhancing metabolism.
Whether IL-21 restored antibody production by acting directly on B cells was determined. Suppression assays were performed using B cells lacking the receptor for IL-21 (Il21r−/−). […] Since upregulation of GL7 is a robust indicator of B cell activation, its expression in suppressed cultures containing either Il21r+/+ B cells or Il21r−/− B cells and supplemented with IL-21 was compared.
Since IL-21 could be affecting the TFH, B or TFR cell in the suppressed culture, whether the rescue of suppressed metabolism could be due to a combined effect of stimulating B cells and inhibiting TFR suppression (by acting directly on the TFR cell) was determined. […] Therefore, IL-21 rescue of TFR cell suppression of B and TFH cells is the result of modulation of B cells as well as inhibiting TFR cells.

Experiment [2] concerns B cells cultured with TFH cells. Kind of experiment: in vitro cultures of B and TFH cells (activated culture) with addition of pathway/metabolic inhibitors. The settings on record: inhibitor added to activated culture (B + TFH), anti-CD3/IgM. As to the method:
To determine the mechanisms of how TFH and B cells are altered during direct TFR suppression, an in vitro suppression assay in which TFR cells are cultured with TFH and B cells was utilized. See e.g., Sage et al., J Clin Invest 124, 5191-5204 (2014); Sage et al., Immunity 41, 1026-1039 (2014); Sage et al., Methods Mol Biol 1291, 151-160 (2015). For these assays, FoxP3IRES-GFP mice were immunized with NP-OVA (emulsified in CFA) subcutaneously and isolated draining lymph nodes 7 days later. TFR (sorted as CD4+ICOS+CXCR5+CD19− FoxP3+) cells were added to co-cultures of B (sorted as CD19+) and TFH (sorted as CD4+ICOS+CXCR5+CD19−FoxP3) cells along with anti-CD3 and anti-IgM for 2 to 6 days (FIG. 1A, FIG. 36A, and FIG. 36B).
To determine if suppressing Myc in activated B cells could recapitulate TFR suppression, in vitro suppression assays were performed in which B cells were cultured with TFH cells, TFH and TFR cells, or TFH cells and the Myc inhibitor 10058-F4 (F4w).
The mTOR pathway promotes protein synthesis during activation and has been linked to enhancing cellular metabolism. […] In vitro cultures of B and TFH cells were performed along with either the mTORc1 inhibitor rapamycin or TFR cells. […] Akt can act both upstream and downstream of mTOR to mediate activation signaling.
To determine if inhibiting glycolysis could recapitulate TFR suppression, cultures of B and TFH cells were performed with the addition of 2-deoxyglucose (2DG), a glucose analog that blocks glycolysis.
Therefore, whether inhibitors of purine metabolism could recapitulate TFR suppression in vitro was determined.

For experiment [3], the system named is B cells from suppressed cultures. Kind of experiment: RNA-seq transcriptional analysis of B cells from suppressed cultures supplemented with IL-21. As to the method: In order to determine how B and TFH cells effector states are altered during TFR mediated suppression assays were performed followed by RNA-seq transcriptome analysis. In these experiments B and TFH cells (from immunized FoxP3-IRES-GFP mice) were cultured with or without TFR cells (from immunized ActinCFP FoxP3-IRES-GFP mice) for 6 days in the presence of NP-OVA (the same antigen used to generate the B, TFH and TFR cells). After 4 days of culture, B (sorted as CD19+IA+CD4−) and TFH (sorted as CD4+IA−CD19−CFP−) cells were sorted from the “activated” culture (TFH and B cells alone) or from the “suppressed” culture (TFH, B and TFR cells) and RNAseq transcriptional analysis was performed (FIG. 2A, FIG. 37A and FIG. 37B).
In order to determine which B cell function genes were rescued at the transcriptional level, RNA-seq transcriptional analysis was performed on B cells from activated cultures, from suppressed cultures, and suppressed cultures supplemented with IL-21. […] In the case of Aicda and Pou2af1, it is possible that this may be due to the epigenetic modification of these gene loci by TFR cells, however this was not tested directly.
Therefore, IL-21 overcomes TFR suppression by stimulating B cells as well as metabolic pathways.

Setting [4] is: cytokine added to suppressed culture.
The mark [5] stands for this setting: cytokine added to suppressed cultures.
The mark [6] stands for this setting: Il21r−/− B cells, suppressed cultures plus IL-21.
Setting [7] is: suppressed cultures with vs without IL-21.

For IL-6: another Stat3 signaling cytokine, the “amount of secreted antibody in culture supernatants” value (“amount of secreted antibody” below) in experiment [1] (setting [4]) is given as “able to rescue”. In addition, in experiment [1] (setting [5]), the “lactate production in culture supernatants” value is “substantially (although not completely) rescue”.

`CCc1ccc(/C=C2/SC(=S)NC2=O)cc1` [10058-F4]: in experiment [2], the “class switch recombination (IgG1+GL7+ B cells)” value (shortened to “class switch recombination”) is on record as “slight diminishment” and the “secreted antibody / antibody production in culture supernatants” value (shortened to “secreted antibody / antibody production”) is listed as “robustly attenuated”.

In the case of `Cn1cnc([N+](=O)[O-])c1Sc1ncnc2nc[nH]c12` [AZA, azathioprine], in experiment [2], the “class switch recombination” value is recorded as “potently suppressed” and the “secreted antibody / antibody production” value is “robust suppression”.

Turning to `O=CC[C@@H](O)[C@H](O)[C@H](O)CO` [2DG, 2-deoxyglucose], the “secreted antibody / antibody production” value in experiment [2] was “robust suppression”.

For the molecule “IL-21: cytokine essential in the germinal center reaction”, the “genes differentially expressed on suppression that are rescued (RNA-seq)” value in experiment [3] (12 genes differential in both suppressed vs IL-21 rescue and suppressed vs activated) was “only Ighg1 and Ighg2c were ‘rescued’”. For the same molecule, in experiment [3] (suppressed plus IL-21 cultures), the “Aicda, Xbp1 and Pou2af1 transcripts (RNA-seq)” value is “did not show any evidence of rescue”; the “metabolic pathways (ssGSEA on RNA-seq)” value is “some rescue of many metabolic pathways”. In experiment [3] (suppressed vs. suppressed plus IL-21 cultures), the “B cell function gene transcripts (RNA-seq)” value is given as “only transcripts for the individual IgG isotypes (Ighg1, Ighg2c, Ighg2b, Igha) showed evidence of significant upregulation”. The “GL7 expression in B cells” value in experiment [1] (Il21r+/+ B cells, suppressed cultures plus IL-21) was “restored”. In experiment [1] (setting [6]), the “GL7 expression in B cells” value is “not”, the “antibody responses (IgG1+GL7+ B cells)” value was “no evidence was found that antibody responses were restored”, the “number of B cells” value was “did not abolish the increase” and the “restoration of CSR” value is “prevent the restoration”. For the same molecule, the “restoration of Glut1 expression on B cells” value in experiment [1] (setting [6]) was “prevent the restoration”. The “proliferation of B cells (Cell Trace Violet dilution)” value in experiment [1] (cytokine added to suppressed culture (B + TFH + TFR)) was “rescued”. Moreover, the “class switch recombination” value in experiment [1] (cytokine added to suppressed culture, compared to activated culture) is on record as “much higher”. For the same molecule, in experiment [1] (setting [4]), the “amount of secreted antibody” value is on record as “mostly rescued”. Also, in experiment [1] (setting [5]), the “Glut1 expression on B cells” value was “completely rescued”, the “Glut1 expression on TFH cells” value is reported as “rescued”, the “glucose consumption in the culture” value is “almost completely rescued” and the “lactate production in culture supernatants” value is given as “substantially (although not completely) rescue”. In addition, in experiment [1] (suppressed cultures plus IL-21 with addition of 2-deoxyglucose (2DG)), the “rescue of antibody production when glycolysis is blocked” value is listed as “not being able to rescue suppression”. In experiment [1] (setting [7]), the “Glut1 expression in TFR cells” value is listed as “higher” and the “intracellular Ki67 staining in TFR cells” value is reported as “much less”.

Regarding `CN(Cc1cnc2nc(N)nc(N)c2n1)c1ccc(C(=O)N[C@@H](CCC(=O)O)C(=O)O)cc1` [MTX, Methotrexate], in experiment [2], the “class switch recombination” value is “potently suppressed” and the “secreted antibody / antibody production” value is “robustly suppresses”.

B1: IL-4: cytokine added to suppressed cultures (protein, UniProt P05112 25-153, looked up)
Interleukin-4: HKCDITLQEIIKTLNSLTEQKTLCTELTVTDIFAASKNTTEKETFCRAATVLRQFYSHHEKDTRCLGATAQQFHRHKQLIRFLKRLDRNLWGLAGLNSCPVKEANQSTLENFLERLKTIMREKYSKCSS
Turning to B1, the “amount of secreted antibody” value in experiment [1] (setting [4]) was “did not occur”.
